Results published in patent US20100267561A1, “HERBICIDAL PYRIDAZINONE DERIVATIVES” (priority 2007, published 2010).

Tests used:
Experiment in all cases: Test B postemergence plant response
Type in all cases: in vivo
[1] = test system: canarygrass (Phalaris minor); conditions: for Plant response rating, Canarygrass: Postemergence; for Canarygrass plant response rating: 8 g ai/ha, postemergence, 0-100 scale
Procedure: (§1) At the same time, plants selected from these crop and weed species and also winter barley (Hordeum vulgare), canarygrass (Phalaris minor), chickweed (Stellaria media) and windgrass (Apera spica-venti) were treated with postemergence applications of some of the test chemicals formulated in the same manner. Plants ranged in height from 2 to 18 cm (1- to 4-leaf stage) for postemergence treatments.
(§2) Plant species in the flooded paddy test consisted of rice (Oryza sativa), umbrella sedge (Cyperus difformis), ducksalad (Heteranthera limosa) and barnyardgrass (Echinochloa crus-galli) grown to the 2-leaf stage for testing. At time of treatment, test pots were flooded to 3 cm above the soil surface, treated by application of test compounds directly to the paddy water, and then maintained at that water depth for the duration of the test. Treated plants and controls were maintained in a greenhouse for 13 to 15 days, after which time all species were compared to controls and visually evaluated. Plant response ratings, summarized in Table B, are based on a scale of 0 to 100 where 0 is no effect and 100 is complete control. A dash (-) response means no test result.

[2] = test system: chickweed (Stellaria media); conditions: for Plant response rating, Chickweed: Postemergence; for Chickweed plant response rating: 8 g ai/ha, postemergence, 0-100 scale
Procedure: as §1, §2

[3] = test system: winter barley (Hordeum vulgare); conditions: for Plant response rating, Barley: Postemergence; for Barley plant response rating: 8 g ai/ha, postemergence, 0-100 scale
Procedure: as §1, §2

[4] = test system: windgrass (Apera spica-venti); conditions: for Plant response rating, Windgrass: Postemergence; for Windgrass plant response rating: postemergence, 0-100 scale
Procedure: as §1, §2

[5] = 31 g ai/ha, scale 0 to 100, 0 no effect, 100 complete control
[6] = 62 g ai/ha, scale 0 to 100, 0 no effect, 100 complete control
[7] = 16 g ai/ha, scale 0 to 100, 0 no effect, 100 complete control

Compound	Plant response rating, Canarygrass [1, 5]	Plant response rating, Canarygrass ([1]; 62 g ai/ha, scale 0 to 100)	Plant response rating, Canarygrass ([1]; 125 g ai/ha, scale 0 to 100)	Plant response rating, Chickweed [2, 5]	Plant response rating, Barley [3, 5]	Canarygrass plant response rating [1]	Plant response rating, Canarygrass ([1]; 16 g ai/ha, scale 0 to 100)	Plant response rating, Canarygrass ([1]; 31 g ai/ha, scale 0 to 100)	Plant response rating, Canarygrass [1, 6]	Chickweed plant response rating [2]	Plant response rating, Chickweed ([2]; 16 g ai/ha, scale 0 to 100)	Plant response rating, Chickweed ([2]; 31 g ai/ha, scale 0 to 100)	Plant response rating, Chickweed [2, 6]	Barley plant response rating [3]	Plant response rating, Barley [3, 7]	Plant response rating, Barley [3, 6]	Windgrass plant response rating ([4]; 8 g ai/ha)	Windgrass plant response rating ([4]; 16 g ai/ha)	Plant response rating, Windgrass ([4]; 31 g ai/ha, scale 0 to 100)	Plant response rating, Windgrass [4, 6]	further results
Cc1cc(-c2ccc(Br)cc2)nn1-c1c(OC(=O)OC(C)C)cnn(C)c1=O [Compound 6]	95	95	100	0	30	–	–	–	–	–	–	–	–	–	–	–	–	–	–	–	Plant response rating, Canarygrass ([1]; 250 g ai/ha, scale 0 to 100): 100; Plant response rating, Chickweed ([2]; 62 g ai/ha, scale 0 to 100): 0; Plant response rating, Chickweed ([2]; 125 g ai/ha, scale 0 to 100): 0; Plant response rating, Chickweed ([2]; 250 g ai/ha, scale 0 to 100): 0; Plant response rating, Barley ([3]; 62 g ai/ha, scale 0 to 100): 30; Plant response rating, Barley ([3]; 125 g ai/ha, scale 0 to 100): 80; Plant response rating, Barley ([3]; 250 g ai/ha, scale 0 to 100): 80; Plant response rating, Windgrass [4, 5]: 90; Plant response rating, Windgrass ([4]; 62 g ai/ha, scale 0 to 100): 95; Plant response rating, Windgrass ([4]; 125 g ai/ha, scale 0 to 100): 100; Plant response rating, Windgrass ([4]; 250 g ai/ha, scale 0 to 100): 100
Cc1cc(-c2ccc(Br)cc2)nn1-c1c(O)cn[nH]c1=O [Compound 78, 4-[3-(4-bromophenyl)-5-methyl-1H-pyrazol-1-yl]-5-hydroxy-3(2H)-pyridazinone]	–	–	–	–	95	80	90	100	100	0	0	0	0	45	90	95	40	50	60	80	–
CCc1cc(-c2ccc(Cl)cc2)nn1-c1c(OC(=O)C(C)(C)C)cnn(C)c1=O [Compound 40]	80	–	–	0	70	20	30	–	80	0	0	–	0	35	40	70	70	–	–	100	Plant response rating, Windgrass ([4]; 16 g ai/ha, scale 0 to 100): 80
Cc1nn(C)c(=O)c(-n2nc(-c3ccc(C(F)(F)F)cc3)cc2C)c1O [Compound 75, 5-hydroxy-2,6-dimethyl-4-[5-methyl-3-[4-(trifluoromethyl)phenyl]-1H-pyrazol-1-yl]-3(2H)-pyridazinone]	–	–	–	–	15	0	0	0	50	0	0	0	0	0	0	60	10	50	70	90	–
Cc1cc(-c2ccc(Cl)cc2)nn1-c1c(OS(C)(=O)=O)cnn(C)c1=O [Compound 36]	10	–	–	0	15	0	0	–	10	0	0	–	0	0	0	15	0	–	–	65	Plant response rating, Windgrass ([4]; 16 g ai/ha, scale 0 to 100): 0
CCc1cc(-c2ccc(Br)cc2)nn1-c1c(O)cnn(C)c1=O [Compound 61]	–	–	–	–	90	80	85	85	85	0	0	0	0	70	90	90	90	100	100	100	–
Cc1nn(C)c(=O)c(-n2nc(-c3ccc(Br)cc3)cc2C)c1O [Compound 81]	–	–	–	–	70	65	–	98	100	0	0	0	0	10	15	98	45	80	85	95	–
CCc1cc(-c2ccc(C(F)(F)F)cc2)nn1-c1c(O)cnn(CC)c1=O [Compound 67]	–	–	–	–	95	50	80	95	–	0	0	0	0	35	85	–	95	100	100	100	–
Cc1cc(-c2ccc(C(F)(F)F)cc2)nn1-c1c(O)cnn(C)c1=O [Compound 1, 5-hydroxy-2-methyl-4-[5-methyl-3-[4-(trifluoromethyl)phenyl]-1H-pyrazol-1-yl]-3(2H)-pyridazinone]	0	0	0	0	0	–	–	–	–	–	–	–	–	–	–	–	–	–	–	–	Plant response rating, Canarygrass ([1]; 250 g ai/ha, scale 0 to 100): 40; Plant response rating, Chickweed ([2]; 62 g ai/ha, scale 0 to 100): 0; Plant response rating, Chickweed ([2]; 125 g ai/ha, scale 0 to 100): 0; Plant response rating, Chickweed ([2]; 250 g ai/ha, scale 0 to 100): 5; Plant response rating, Barley ([3]; 62 g ai/ha, scale 0 to 100): 0; Plant response rating, Barley ([3]; 125 g ai/ha, scale 0 to 100): 0; Plant response rating, Barley ([3]; 250 g ai/ha, scale 0 to 100): 30; Plant response rating, Windgrass [4, 5]: 95; Plant response rating, Windgrass ([4]; 62 g ai/ha, scale 0 to 100): 100; Plant response rating, Windgrass ([4]; 125 g ai/ha, scale 0 to 100): 100; Plant response rating, Windgrass ([4]; 250 g ai/ha, scale 0 to 100): 100
Cc1cc(-c2ccc(Br)cc2)nn1-c1c(O)cnn(C)c1=O [Compound 4]	80	90	100	0	0	–	–	–	–	–	–	–	–	–	–	–	–	–	–	–	Plant response rating, Canarygrass ([1]; 250 g ai/ha, scale 0 to 100): 100; Plant response rating, Chickweed ([2]; 62 g ai/ha, scale 0 to 100): 0; Plant response rating, Chickweed ([2]; 125 g ai/ha, scale 0 to 100): 0; Plant response rating, Chickweed ([2]; 250 g ai/ha, scale 0 to 100): 20; Plant response rating, Barley ([3]; 62 g ai/ha, scale 0 to 100): 10; Plant response rating, Barley ([3]; 125 g ai/ha, scale 0 to 100): 90; Plant response rating, Barley ([3]; 250 g ai/ha, scale 0 to 100): 95; Plant response rating, Windgrass [4, 5]: 90; Plant response rating, Windgrass ([4]; 62 g ai/ha, scale 0 to 100): 100; Plant response rating, Windgrass ([4]; 125 g ai/ha, scale 0 to 100): 100; Plant response rating, Windgrass ([4]; 250 g ai/ha, scale 0 to 100): 100
CCc1cc(-c2ccc(Cl)cc2)nn1-c1c(OS(C)(=O)=O)cnn(C)c1=O [Compound 39]	40	–	–	0	40	0	0	–	50	0	0	–	0	0	5	70	0	–	–	100	Plant response rating, Windgrass ([4]; 16 g ai/ha, scale 0 to 100): 40
4-[3-(4-chlorophenyl)-5-methyl-1H-pyrazol-3-yl]-5-hydroxy-2-methyl-3(2H)-pyridazinone [Compound 3]	85	85	85	0	0	–	–	–	–	–	–	–	–	–	–	–	–	–	–	–	Plant response rating, Canarygrass ([1]; 250 g ai/ha, scale 0 to 100): 90; Plant response rating, Chickweed ([2]; 62 g ai/ha, scale 0 to 100): 0; Plant response rating, Chickweed ([2]; 125 g ai/ha, scale 0 to 100): 0; Plant response rating, Chickweed ([2]; 250 g ai/ha, scale 0 to 100): 0; Plant response rating, Barley ([3]; 62 g ai/ha, scale 0 to 100): 0; Plant response rating, Barley ([3]; 125 g ai/ha, scale 0 to 100): 0; Plant response rating, Barley ([3]; 250 g ai/ha, scale 0 to 100): 0; Plant response rating, Windgrass [4, 5]: 80; Plant response rating, Windgrass ([4]; 62 g ai/ha, scale 0 to 100): 100; Plant response rating, Windgrass ([4]; 125 g ai/ha, scale 0 to 100): 100; Plant response rating, Windgrass ([4]; 250 g ai/ha, scale 0 to 100): 100
